Patent publication US20180015098A1 (LAM Therapeutics, Inc., priority 2015, published 2018)

System: panel of 456 kinases
Test: Screen of apilimod against a comprehensive panel of 456 kinases (PIKfyve not included)
Format: binding
Details: screening concentration 1 μM
Text: Next, apilimod was screened against a comprehensive panel of kinases (PIKfyve not included).

## Cc1cccc(/C=N/Nc2cc(N3CCOCC3)nc(OCCc3ccccn3)n2)c1 [apilimod]
  binding to kinases of the panel: did not bind to any of the 456 kinases tested
